“Also recorded” adds a separate entry of the source. Values belong to the compound of their own block, whether it stands above or below them.
Tests used:
platelet aggregation = tested on: platelet aggregation; design: method as in PMID 12350148; details: cited from earlier work
HT-29 = details: cited from earlier work
[1] = tested on: NO production from LPS-activated macrophages; design: method as in PMID 12762798; details: cited from earlier work
P-388 = details: cited from earlier work; for cytotoxicity against P-388 IC50: moderate cytotoxicity
[2] = tested on: A549, SK-OV-3, SK-MEL-2, MES-SA and HCT-15; design: method as in PMID 15089031; details: cited from earlier work
11 cancer cell lines = details: SRB assay; cited from earlier work
[3] = tested on: RAW 264.7 murine macrophages; details: cited from earlier work
iNOS = tested on: iNOS; design: method as in PMID 12808242; details: cited from earlier work
P388 = details: cited from earlier work
A549, Hela and SMMC-7721 = tested on: A549, Hela and SMMC-7721; design: method as in PMID 21973054; details: data not very satisfactory; cited from earlier work
HL-60 cells = tested on: HL-60 cells; design: method as in doi:10.1016/j.phytol.2012.02.014; details: much weaker than RA-XXIV and RA-VII; cited from earlier work
four cell lines = details: cited from earlier work
[4] = tested on: Vancomycin-Resistant Enterococci; details: cited from earlier work
HT-29, MCF-7 and HepG2 = tested on: HT-29, MCF-7 and HepG2; design: method as in PMID 18239313; details: cited from earlier work
glyoxalase I = details: cited from earlier work
renal aldose reductase = details: cited from earlier work
DNA topoisomerase II = tested on: DNA topoisomerase II; design: method as in PMID 18239313; details: cited from earlier work
[5] = design: method as in PMID 20188082; details: mice; cited from earlier work

Compound: CC(C)[C@@H]1C[C@@H](O)[C@H]2[C@@]1(CO)CC[C@@]1(C)[C@H]3C(=CC[C@]21C)[C@@]1(C)CC[C@H](O)C(C)(C)[C@@H]1C[C@@H]3O [Compound 16, Rubiarbonol A]
effect on platelet aggregation at the high doses (platelet aggregation): promoted platelet aggregation | effect on platelet aggregation at the lower concentrations (platelet aggregation): possessed antiplatelet aggregation activity | cytotoxicity against HT-29 (HT-29): relatively strong cytotoxicity | inhibition of NO production [1]: inhibit NO production; also recorded: inhibitory activities on NO production | melting point: 260 to 263 °C

Compound: RA- XVIII [Compound 85]
cytotoxicity against P-388 (P-388; P-388): 0.012 µg/mL

melting point: 253 to 254 °C
Compound: COC(=O)CC[C@@H]1NC(=O)[C@@H](C)NC(=O)[C@@H]2Cc3ccc(O)c(c3)Oc3ccc(cc3)C[C@@H](C(=O)N2C)N(C)C(=O)[C@H](C)NC(=O)[C@H](Cc2ccc(OC)cc2)N(C)C1=O

Compound: CC(=O)OC1CCC2(C)C(CCC3(C)C2CC=C2C4CC(C)(C)CCC4(C=O)CCC23C)C1(C)C (centres unmarked) [Compound 15, Oleanolic aldehyde acetate]
bioactivities against A549, SK-OV-3, SK-MEL-2, MES-SA and HCT-15 [2]: potent bioactivities

Compound: Rubiyunnanin B [Compound 93]
cytotoxicities against the 11 cancer cell lines (11 cancer cell lines): moderate cytotoxicities

Compound: RY-I [Compound 100]
activity against NO production in LPS [3]: exhibited activity

Compound: RA-XII [Compound 79]
activity against NO production in LPS [3]: exhibited activity | effects on iNOS induction (iNOS): potent effects | antitumor activity against P388 (P388): potent antitumor activity

Compound: Rubiarbonone A [Compound 25]
effect on platelet aggregation at the high doses (platelet aggregation): promoted platelet aggregation | effect on platelet aggregation at the lower concentrations (platelet aggregation): possessed antiplatelet aggregation activity

Compound: CC(C)[C@@H]1C[C@@H](O)[C@H]2[C@@]1(C)CC[C@@]1(C)[C@H]3C(=CC[C@]21C)[C@@]1(C)CC[C@H](O)C(C)(C)[C@@H]1C[C@@H]3O [Compound 17, Rubiarbonol B]
inhibition against arachidonic acid-induced and collagen-induced platelet aggregation (platelet aggregation; at 150 μM, among compounds 16, 17 and 25): most potent inhibition

Compound: CC(=O)OC[C@@]12CC[C@@]3(C)[C@H]4C(=CC[C@]3(C)[C@H]1[C@H](O)C[C@H]2C(C)C)[C@@]1(C)CCC(=O)C(C)(C)[C@@H]1C[C@@H]4O [Compound 27, Rubiarbonone C]
inhibition of NO production [1]: inhibit NO production; also recorded: inhibitory activities on NO production | melting point: 98 to 100 °C

Compound: COc1ccc(C[C@H]2C(=O)N[C@@H](C)C(=O)N(C)[C@H]3Cc4ccc(cc4)Oc4cc(ccc4O)C[C@@H](C(=O)N[C@H](C)C(=O)N[C@@H](CCC(N)=O)C(=O)N2C)N(C)C3=O)cc1 [Compound 91, RA- XXIV]
activity against NO production in LPS [3]: exhibited activity | cytotoxicity against P-388 IC50 (P-388; P-388): 480 µg/mL

Compound: CC(C)[C@@H]1CC=C2[C@@]1(C)CC[C@@]1(C)[C@H]3C(=CC[C@]21C)[C@@]1(C)CC[C@H](O)C(C)(C)[C@@H]1C[C@@H]3O [Compound 55, Rubiyunnanol B]
inhibition on A549, Hela and SMMC-7721 (A549, Hela and SMMC-7721): had inhibition | melting point: 247 to 248 °C

Compound: COc1ccc(C[C@H]2C(=O)N[C@@H](C)C(=O)N(C)[C@H]3Cc4ccc(cc4)Oc4cc(ccc4OC)C[C@@H](C(=O)N[C@H](C)C(=O)N[C@@H](CCC(N)=O)C(=O)N2C)N(C)C3=O)cc1 [Compound 90, RA- XXIII]
cytotoxicity against P-388 IC50 (P-388; P-388): 160 µg/mL

Compound: CC(=O)O[C@@H]1C[C@@H](C(C)C)[C@]2(CO)CC[C@@]3(C)[C@H]4C(=CC[C@]3(C)[C@@H]12)[C@@]1(C)C=CC(=O)C(C)(C)[C@@H]1C[C@@H]4O [Compound 58, Rubiarbonone E 19-acetate]
inhibition on A549, Hela and SMMC-7721 (A549, Hela and SMMC-7721): had inhibition

Compound: CC(=O)OC[C@@]12CC[C@@]3(C)[C@H]4C(=CC[C@]3(C)[C@H]1[C@H](O)C[C@H]2C(C)C)[C@@]1(C)CC[C@H](O[C@@H]2O[C@H](CO[C@@H]3O[C@H](CO)[C@@H](O)[C@H](O)[C@H]3O)[C@@H](O)[C@H](O)[C@H]2O)C(C)(C)[C@@H]1C[C@@H]4O [Compound 62, Rubiarboside G 28-acetate]
inhibition on A549, Hela and SMMC-7721 (A549, Hela and SMMC-7721): had inhibition

Compound: O-seco-RA-XXIV [Compound 109]
cytotoxic effects on HL-60 cells (HL-60 cells): exhibited cytotoxic effects

Compound: CC(=O)OC[C@@]12CC[C@@]3(C)[C@H]4C(=CC[C@]3(C)[C@H]1[C@H](O)C[C@H]2C(C)C)[C@@]1(C)CC[C@H](O)C(C)(C)[C@@H]1C[C@@H]4O [Compound 42, Rubianol-c]
inhibition of NO production [1]: inhibit NO production; also recorded: inhibitory activities on NO production

Compound: RA-X [Compound 77]
antitumour effect on P388 (P388): strong antitumour effect

Compound: RA-IX [Compound 76]
antitumour effect on P388 (P388): almost no antitumour activities

Compound: CC(C)[C@@H]1C[C@@H](O)[C@H]2[C@@]1(CO)CC[C@@]1(C)[C@H]3C(=CC[C@]21C)[C@@]1(C)C[C@@H](O)[C@H](O)C(C)(C)[C@@H]1C[C@@H]3O [Compound 21, Rubiarbonol F]
inhibition of NO production [1]: inhibit NO production; also recorded: inhibitory activities on NO production

Compound: CC1(C)CC[C@]2(C(=O)O)CC[C@]3(C)C(=CC[C@@H]4[C@@]5(C)CC[C@H](O)C(C)(C)[C@@H]5CC[C@]43C)[C@@H]2C1 [Compound 12, Oleanolic acid]
apoptotic effects (four cell lines): markedly apoptotic effects | cell adhesion (four cell lines): suppress cell adhesion | production of VEGF and ICAM-1 (four cell lines): reduce the production of VEGF and ICAM-1 | toxicity [4]: low toxicity | antimicrobial activities ([4]; weaker than clinical antimicrobial drugs): fairly high antimicrobial activities | cytotoxicity against HT-29, MCF-7 and HepG2 (HT-29, MCF-7 and HepG2): weak cytotoxicity | activity of glyoxalase I (glyoxalase I): enhanced the activity | renal aldose reductase activity (renal aldose reductase): markedly suppressed | inhibitory activity against DNA topoisomerase II compared with DNA topoisomerase I (DNA topoisomerase II): selective inhibitory activity | glucose tolerance [5]: improve glucose tolerance | visceral adiposity [5]: ameliorate visceral adiposity

Compound: RA-I [Compound 66]
activity against NO production in LPS [3]: exhibited activity

Compound: CC(C)[C@@H]1C[C@@H](O)[C@H]2[C@@]1(C)CC[C@@]1(C)C3=CC[C@H]4C(C)(C)[C@@H](O)CC[C@]4(C)C3=CC[C@]21C [Compound 54, Rubiyunnanol A]
inhibition on A549, Hela and SMMC-7721 (A549, Hela and SMMC-7721): had inhibition

Compound: CC(=O)OC[C@@]12CC[C@@]3(C)[C@H]4C(=CC[C@]3(C)[C@H]1[C@H](O)C[C@H]2C(C)C)[C@@]1(C)C[C@@H](O)[C@H](O)C(C)(C)[C@@H]1C[C@@H]4O [Compound 43, Rubianol-d]
efficacy of NO production inhibition compared with L-NMMA [1]: equivalent to L-NMMA | inhibition of NO production [1]: exhibited the inhibition

Compound: RC-18 [Compound 105]
activities against P388 (P388): medium activities

Compound: RA- XXII [Compound 89]
relative cytotoxicity against P388 (P-388; RA-VII (74) as reference): less cytotoxic than 88

Compound: COc1ccc(C[C@H]2C(=O)N[C@@H](C)C(=O)N(C)[C@H]3Cc4ccc(cc4)Oc4cc(ccc4OC)C[C@@H](C(=O)N[C@H](C)C(=O)N[C@@H](C)C(=O)N2C)N(C)C3=O)cc1 [Compound 104, RA-700]
activities against P388 (P388): medium activities

Compound: Rubianol-e [Compound 44]
efficacy of NO production inhibition compared with L-NMMA [1]: equivalent to L-NMMA | inhibition of NO production [1]: exhibited the inhibition

From paper PMC3698108, “Structural and bioactive studies of terpenes and cyclopeptides from the Genus Rubia” (Chemistry Central Journal, 2013)
